Assay results from US5308869A, “Substituted amidines having high binding to the sigma receptor and the use thereof” (priority 1992, dated 1994).

Tests used:
sigma receptor [1] = experiment: Sigma receptor binding assay, [^3 H]DTG, guinea pig brain membrane homogenates; details: guinea pig brain membranes; for IC50: read-out: IC50 vs [^3 H]DTG (MEAN), […] [^3 H]DTG, pH 7.4, 90 minutes at room temperature, mean with SEM and n in own columns; for Binding to / selectivity at [^3 H]DTG-labelled sigma sites: drug specificity profile
[2] = in vivo; cited from earlier work
sigma binding site = details: cited from earlier work
kappa receptors = details: cited from earlier work
mu receptors = details: cited from earlier work
[3] = tested on: [^3 H]spiperone-labeled D2 site in striatum; details: chronic administration (20 days) to rats; cited from earlier work
histaminergic sites = details: cited from earlier work
[4] = tested on: dopamine-stimulated CAMP production; details: in vitro; cited from earlier work
[5] = tested on: D1 subclass of dopamine receptors; details: cited from earlier work
muscarinic sites = details: cited from earlier work
sigma receptor [6] = details: cited from earlier work
rats = details: rat, in vivo; cited from earlier work
cholinergic sites = details: cited from earlier work
[7] = tested on: D2 class of striatal dopamine receptors; details: rat striatum; cited from earlier work
adrenergic sites = details: cited from earlier work
[8] = tested on: apomorphine-induced mesolimbic behaviors; details: without altering intensity of stereotypic behaviors; cited from earlier work
[9] = tested on: dopamine-stimulated production of CAMP; details: homogenates of rat striatum and olfactory tubercle; cited from earlier work
sigma receptor [10] = details: cited from earlier work; remark: listed apart in the source
[11] = humans; cited from earlier work
dopamine synthesis = details: cited from earlier work
sigma sites = details: rat brain membrane; cited from earlier work
rhesus monkeys = details: introduction of foreign objects into cages; cited from earlier work

CC(=Nc1ccccc1C)NC1CC2CCC1C2 (centres unmarked) [N-Exonorbornyl-N'-(2-methylphenyl)acetamidine]
IC50 (sigma receptor [1]): 9.32 nM

CN=C(C)Nc1ccccc1C [N-(o-tolyl)-N'-methylacetamidine]
IC50 (sigma receptor [1]): 354 nM

[3H]c1ccc(NC(=N)Nc2ccc([3H])cc2C)c(C)c1 [[^3 H]DTG, N,N'-di-(4-[^3 H]-2-methylphenyl)-guanidine]
Binding to / selectivity at [^3 H]DTG-labelled sigma sites (sigma receptor [1]): binds specifically and with high affinity to a single class of binding sites

C[C@@H]1CN(CCCn2c3ccccc3c3ccccc32)C[C@H](C)N1 [9-[3-(3,5-cis-dimethylpiperazino)-propyl]carbazole]
Anxiolytic activity [2]: anxiolytic activity

CC(=Nc1ccc(Br)cc1C)Nc1ccc(Br)cc1C [N,N'-Bis(4-bromo-2-tolyl)acetamidine]
IC50 (sigma receptor [1]): 25.8 nM

CCC12CCN(CC3CC3)C(C(=O)c3ccc(O)cc31)C2C (single isomer, unassigned; (+)) [(+)[^3 H]-ethylketazocine]
Sigma site selectivity of radioligand (sigma binding site): not selective for the sigma site

O=C(CCCN1CCC(O)(c2ccc(Cl)cc2)CC1)c1ccc(F)cc1 [haloperidol]
Binding to / selectivity at [^3 H]DTG-labelled sigma sites (sigma receptor [1]): high affinity
Drug selectivity profile of sigma binding site (sigma binding site): high affinity

CC(C)=CCN1CCC2(C)c3cc(O)ccc3CC1C2C (single isomer, unassigned; (+)) [(+)pentazocine]
Binding to / selectivity at [^3 H]DTG-labelled sigma sites (sigma receptor [1]): stereoselectivity for dextrorotatory isomers

C=CCN1CCC2(C)c3cc(O)ccc3CC1C2C (single isomer, unassigned; (-)) [(-)-SKF-10,047, N-allyl-normetazocine]
Binding to kappa receptors (kappa receptors): labeled the mu and kappa receptors
Drug selectivity profile of sigma binding site (sigma binding site): not the sigma receptors
Binding to mu receptors (mu receptors): labeled the mu and kappa receptors

CC(=Nc1cccc2ccccc12)Nc1cccc2ccccc12 [N,N'-bis(1-naphthyl)acetamidine]
IC50 (sigma receptor [1]): 169 nM

CC(=NC1CCCCC1)Nc1ccccc1C [N-(o-Methylphenyl)-N'-(cyclohexyl)acetamidine]
IC50 (sigma receptor [1]): 9.01 nM

C=CCN1CCC2(C)c3cc(O)ccc3CC1C2C (single isomer, unassigned; (+)) [(+)SKF-10,047, N-allyl-normetazocine]
Binding to / selectivity at [^3 H]DTG-labelled sigma sites (sigma receptor [1]): stereoselectivity for dextrorotatory isomers
Drug selectivity profile of sigma binding site (sigma binding site): selectively label a sigma receptor

OC(CCCN1CCN(c2ncc(F)cn2)CC1)c1ccc(F)cc1 (centres unmarked) [BMY 14802]
Maximal density of [^3 H]spiperone-labeled D2 site in striatum [3]: did not increase the maximal density
Binding to histaminergic sites (histaminergic sites): does not bind
Inhibition of dopamine-stimulated CAMP production [4]: does not inhibit dopamine-stimulated CAMP production
Interaction with D1 subclass of dopamine receptors [5]: does not appear to interact
Inhibition of [^3 H]SCH 23390 binding ([5]; in vitro): does not inhibit
Binding to muscarinic sites (muscarinic sites): does not bind
Sigma receptor binding affinity (sigma receptor [6]): relatively high affinity
Potency at inhibiting sigma binding, dextrorotatory vs levorotatory enantiomer (sigma receptor [6]; dextrorotatory more potent than levorotatory enantiomer): 10 times
Catalepsy in rats (rats): did not cause catalepsy in rats
Binding to cholinergic sites (cholinergic sites): does not bind
Inhibition of [^3 H]spiperone binding to D2 receptors [7]: does not inhibit the binding
Binding to adrenergic sites (adrenergic sites): does not bind

CC(=Nc1ccccc1C)Nc1ccccc1C [N,N'-bis(-o-tolyl)acetamidine, N,N'-Bis(o-methylphenyl)acetamidine]
IC50 (sigma receptor [1]): 15 nM

CC(=Nc1ccccc1C)NC12CC3CC(CC(C3)C1)C2 [N-(Adamantan-1-yl)-N'-(o-methylphenyl)acetamidine]
IC50 (sigma receptor [1]): 7.27 nM

CN1CCc2cccc3c2[C@H]1Cc1ccc(O)c(O)c1-3 [apomorphine]
Binding to / selectivity at [^3 H]DTG-labelled sigma sites (sigma receptor [1]): insensitivity
Drug selectivity profile of sigma binding site (sigma binding site): insensitivity

CCc1cccc(N=C(C)Nc2cccc3ccccc23)c1 [N-(1-naphthyl)-N'-(3-ethylphenyl)-acetamidine]
IC50 (sigma receptor [1]): 123 nM

C=CCN1CCC2(C)c3cc(O)ccc3CC1C2C (single isomer, unassigned; (+)) [(+)[^3 H]SKF-10,047]
Sigma site selectivity of radioligand (sigma binding site): not selective for the sigma site

CC(=NC12CC3CC(CC(C3)C1)C2)NC12CC3CC(CC(C3)C1)C2 [N,N'-bis(adamantan-1-yl)acetamidine, N,N'-Bis(adamantan-1-yl)acetamidine]
IC50 (sigma receptor [1]): 15.7 nM

CC(=Nc1ccccc1C(C)C)Nc1cccc2ccccc12 [N-(1-naphthyl)-N'-(2-isopropylphenyl)-acetamidine]
IC50 (sigma receptor [1]): 118 nM

C=CCN1CC[C@]23c4c5ccc(O)c4O[C@H]2C(=O)CC[C@@]3(O)[C@H]1C5 [naloxone]
Binding to / selectivity at [^3 H]DTG-labelled sigma sites (sigma receptor [1]): insensitivity
Drug selectivity profile of sigma binding site (sigma binding site): insensitivity

C[C@@H]1CN(CCCn2c3ccccc3c3ccccc32)C[C@H](C)N1.Cl.Cl [rimcazole, cis-9-[3-(3,5-dimethyl-1-piperazinyl)-propyl]carbazole dihydrochloride]
Antagonism of apomorphine-induced mesolimbic behaviors [8]: antagonize apomorphine-induced mesolimbic behaviors selectively without altering the intensity of stereotypic behaviors
Effect on dopamine-stimulated production of CAMP [9]: does not affect dopamine-stimulated production of CAMP
Inhibition of specific binding of dextrorotatory tritiated SKF-10,047 (sigma receptor [10]): competitively inhibit the specific binding
Extrapyramidal effects [11]: without extrapyramidal effects
Acceleration of rate of dopamine synthesis (dopamine synthesis): does not accelerate the rate of dopamine synthesis

CC(=Nc1ccccc1C(C)C)Nc1ccccc1C(C)C [N,N'-bis(2-isopropylphenyl)acetamidine, N,N'-Bis(2-isopropylphenyl)acetamidine]
IC50 (sigma receptor [1]): 77.4 nM

CC(=NC1CCCCC1)NC12CC3CC(CC(C3)C1)C2 [N-(Adamantan-1-yl)-N'-(cyclohexyl)acetamidine]
IC50 (sigma receptor [1]): 71.9 nM

CCCN1CCCC(c2cccc(O)c2)C1 (single isomer, unassigned; (+)) [(+)[^3 H]3-PPP, (+)[^3 H]3-(3-hydroxyphenyl)-N-(1-propyl)-piperidine]
Binding to / selectivity at [^3 H]DTG-labelled sigma sites (sigma receptor [1]): virtually identical receptor binding characteristics and drug selectivity profiles
Selectivity for sigma sites (sigma sites): selective for sigma sites

CCc1cccc(N=C(C)Nc2cccc(CC)c2)c1 [N,N'-bis(3-ethylphenyl)acetamidine, N,N'-Bis(3-ethylphenyl)acetamidine]
IC50 (sigma receptor [1]): 13 nM

O=C1CC2(CCCC2)CC(=O)N1CCCCN1CCN(c2ncccn2)CC1 [Buspirone]
Efficacy in taming of aggressive response (rhesus monkeys): efficacy in a predictive animal model

NCCc1ccc(O)c(O)c1 [dopamine]
Binding to / selectivity at [^3 H]DTG-labelled sigma sites (sigma receptor [1]): insensitivity
Drug selectivity profile of sigma binding site (sigma binding site): insensitivity

CCc1ccccc1N=C(C)Nc1ccccc1CC [N,N'-bis-(o-ethylphenyl)acetamidine, N,N'-Bis(2-ethylphenyl)acetamidine]
IC50 (sigma receptor [1]): 36.9 nM

CCc1cccc(N=C(C)Nc2cccc3ccccc23)c1 [N-(1-naphthyl)-N'-(m-ethylphenyl)-acetamidine]
IC50 (sigma receptor [1]): 2410 nM
